# Patent publication US20230365627A1, “MACROCYCLIC PEPTIDE BORONATE IMMUNOMODULATORS” (Bristol-Myers Squibb Company, priority 2020, published 2023)
# Where two headings read alike, the source gives them in different places. *1 amine or outer side, *2 acyl side, *3 side chain or, on linkers, in order; H or OH if unused. Where a SMILES comes first, the peptide text is derived from it. Bridges are numbered along the chain shown (N, C = ends). [ ]: non-standard residue; d: D form. X23 = O=C([C@H](CN1Cc2ccc(cc2)B2O[C@@H]([C@H](O)[C@@H](C(O)CO)O2)[C@H](O)C1)N[*:1])[*:2]; X16 = O=C([C@H](CN(Cc1cccc(B(O)O[*:3])c1)Cc1cccc2ccc3ccccc3c12)N[*:1])[*:2]; X13 = O=C([C@H](CCNC[C@@H](O)[C@@H](O)[C@H](O)[C@H](O)C(O)CO)N[*:1])[*:2]; Trp(1-CH2CO) = O=C([C@H](Cc1cn(CC(=O)[*:3])c2ccccc12)N[*:1])[*:2]; Trp(1-CH2COOH) = N[C@@H](Cc1cn(CC(=O)O)c2ccccc12)C(=O)O; X17 = O=C([C@H](CCNCc1cccc(B(O)O)c1)N[*:1])[*:2]; Hyp = O=C(O)[C@@H]1C[C@@H](O)CN1; NMeNle = CCCC[C@H](NC)C(=O)O; NMeA = CN[C@@H](C)C(=O)O
# Target: PD-1/PD-L1 (Homo sapiens (Human), UniProt Q9NZQ7)
# Sequence (Q9NZQ7 18-239): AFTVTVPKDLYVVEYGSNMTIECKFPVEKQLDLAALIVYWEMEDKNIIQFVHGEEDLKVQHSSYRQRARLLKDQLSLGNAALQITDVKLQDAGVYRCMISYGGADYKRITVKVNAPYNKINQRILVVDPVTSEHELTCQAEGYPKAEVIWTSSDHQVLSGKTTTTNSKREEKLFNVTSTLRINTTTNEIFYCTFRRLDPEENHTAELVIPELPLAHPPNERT
# Test: PD-1/PD-L1 Homogenous Time-Resolved Fluorescence (HTRF) binding assay
SMILES,IC50 [nM],"IC50 (PD-L1-His 10 nM, PD-1-Ig 20 nM, read-out: HTRF IC50) [nM]"
CCCC[C@H]1C(=O)N(C)[C@@H](CCCC)C(=O)N[C@@H](CC(C)C)C(=O)N[C@H](C(=O)NCC(N)=O)CSCC(=O)N[C@@H](Cc2ccc(O)cc2)C(=O)N(C)[C@@H](C)C(=O)N[C@@H](CC(N)=O)C(=O)N2CCC[C@H]2C(=O)N[C@@H](CN2Cc3ccc(cc3)B3O[C@@H]([C@H](O)[C@@H](C(O)CO)O3)[C@H](O)C2)C(=O)N[C@@H](CC(C)C)C(=O)N2C[C@H](O)C[C@H]2C(=O)N[C@@H](Cc2c[nH]c3ccccc23)C(=O)N[C@@H](CCNC[C@@H](O)[C@@H](O)[C@H](O)[C@H](O)C(O)CO)C(=O)N[C@@H](Cc2cn(CC(=O)O)c3ccccc23)C(=O)N1C (some centres unmarked) [Example 1039] ({CH2CO}-Y[NMeA]NP[X23]L[Hyp]W[X13][Trp(1-CH2COOH)][NMeNle][NMeNle]LCG-NH2; thioether N-14),4.4,
CCCC[C@H]1C(=O)N(C)[C@@H](CCCC)C(=O)N[C@@H](CC(C)C)C(=O)N[C@H](C(=O)NCC(N)=O)CSCC(=O)N[C@@H](Cc2ccc(O)cc2)C(=O)N(C)[C@@H](C)C(=O)N[C@@H](CC(N)=O)C(=O)N2CCC[C@H]2C(=O)N[C@H]2CN(Cc3cccc4ccc5ccccc5c34)Cc3cccc(c3)B(O)OC(=O)Cn3cc(c4ccccc43)C[C@H](NC(=O)[C@H](CCNCc3cccc(B(O)O)c3)NC(=O)[C@H](Cc3c[nH]c4ccccc34)NC(=O)[C@@H]3C[C@@H](O)CN3C(=O)[C@H](CC(C)C)NC2=O)C(=O)N1C [Example 1042] ({CH2CO}-Y[NMeA]NP[X16]L[Hyp]W[X17][Trp(1-CH2CO)][NMeNle][NMeNle]LCG-NH2; ester 5-10; thioether N-14),,94
